In patent US20050277639A1, “2-Pyridinyl[7-(substituted-pyridin-4-yl)pyrazolo[1,5-a]pyrimidin-3-yl]methanones” (priority 2004, published 2005):

Molecular target: benzodiazepine receptor (Rattus norvegicus, UniProt P18508+P62813)
Experiment: Competition radioligand binding assay with [3H]Ro 15-1788 in washed cerebellar membranes
Details: [3H]Ro 15-1788 binding; comparison with parent compound ocinaplon

Which “affinity for the benzodiazepine receptor compared with ocinaplon” value does the source give for O=C(c1ccccn1)c1cnn2c(-c3cc(Br)nc(Br)c3)ccnc12 [2,6-dibromo, 2-Pyridinyl[7-(2,6-dibromopyridin-4-yl)pyrazolo[1,5-a]pyrimidin-3-yl]methanone] here?
Its value is “substantially lower affinity”.
